Measurements as given in PubChem BioAssay AID330 (DTP/NCI, 2004).
Several values for one entry are separate records, joined by “and”; a condition that tells them apart may be missing. Identical values can stand only once. Inconclusive results and toxic doses are left out.

System: P388 leukemia ip, CD2F1 mice, survival T/C
Experiment: NCI In Vivo Anticancer Drug Screen. Data for tumor model P388 Leukemia (intraperitoneal) in CD2F1 (CDF1) mice
Settings: endpoint: median survival time, higher = longer survival
Summary of the method: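 Mice carrying the transplanted tumor received test compound or vehicle. Survival was recorded in each group, and the value is the treated-group measurement divided by that of the vehicle-treated control group.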

[1] = dose: 100.0 mg/kg/injection, schedule: Q04DX003 (ip), vehicle: saline with Tween-80
[2] = dose: 200.0 mg/kg/injection, schedule: Q04DX003 (ip), vehicle: saline with Tween-80
[3] = dose: 400.0 mg/kg/injection, schedule: Q04DX003 (ip), vehicle: saline with Tween-80
[4] = dose: 100.0 mg/kg/injection, schedule: Q04DX002 (ip), vehicle: saline with Tween-80
[5] = dose: 200.0 mg/kg/injection, schedule: Q04DX002 (ip), vehicle: saline with Tween-80
[6] = dose: 400.0 mg/kg/injection, schedule: Q04DX002 (ip), vehicle: saline with Tween-80
[7] = dose: 50.0 mg/kg/injection, schedule: Q01DX005 (ip), vehicle: Klucel (hydroxypropylcellulose) (HPC)
[8] = dose: 100.0 mg/kg/injection, schedule: Q01DX005 (ip), vehicle: Klucel (hydroxypropylcellulose) (HPC)
[9] = dose: 200.0 mg/kg/injection, schedule: Q01DX005 (ip), vehicle: Klucel (hydroxypropylcellulose) (HPC)
[10] = dose: 60.0 mg/kg/injection, schedule: Q01DX005 (ip), vehicle: saline with Tween-80
[11] = dose: 120.0 mg/kg/injection, schedule: Q01DX005 (ip), vehicle: saline with Tween-80
[12] = dose: 240.0 mg/kg/injection, schedule: Q01DX005 (ip), vehicle: saline with Tween-80

## CCOC(=O)/C(C#N)=C(\O)CCCC(=O)O
dose: 50.0 mg/kg/injection, schedule: Q01DX009 (ip), vehicle: Klucel (hydroxypropylcellulose) (HPC)
  T/C: 88 % of control
dose: 100.0 mg/kg/injection, schedule: Q01DX009 (ip), vehicle: Klucel (hydroxypropylcellulose) (HPC)
  T/C: 91 % of control
dose: 200.0 mg/kg/injection, schedule: Q01DX009 (ip), vehicle: Klucel (hydroxypropylcellulose) (HPC)
  T/C: 90 % of control

## CCC(=O)O[C@H]1CC[C@H]2[C@@H]3C[C@H](C)C4=CC(=O)C=C[C@]4(C)[C@H]3C(=O)C[C@]12C
[1]
  T/C: 90 % of control
[2]
  T/C: 104 % of control
[3]
  T/C: 100 % of control

## COc1ccc(C(=O)C(CN(C)C)CN(C)C)cc1OC
dose: 6.25 mg/kg/injection, schedule: Q01DX005 (ip), vehicle: saline
  T/C: 113 % of control
dose: 12.5 mg/kg/injection, schedule: Q01DX005 (ip), vehicle: saline
  T/C: 117 % of control and 124 % of control
dose: 25.0 mg/kg/injection, schedule: Q01DX005 (ip), vehicle: saline
  T/C: 117 % of control and 121 % of control
dose: 50.0 mg/kg/injection, schedule: Q01DX005 (ip), vehicle: saline
  T/C: 112 % of control

## COc1cccc2c1C(=O)c1c(O)c3c(c(O)c1C2=O)CC(O)(/C(C)=N/NC(=O)CCCC(=O)N/N=C(\C)C1(O)Cc2c(O)c4c(c(O)c2C(OC2CC(N)C(O)C(C)O2)C1)C(=O)c1c(OC)cccc1C4=O)CC3OC1CC(N)C(O)C(C)O1 (centres undefined)
dose: 0.2 mg/kg/injection, schedule: Q01DX009 (ip), vehicle: water
  T/C: 105 % of control
dose: 0.39 mg/kg/injection, schedule: Q01DX009 (ip), vehicle: water
  T/C: 90 % of control
dose: 0.78 mg/kg/injection, schedule: Q01DX009 (ip), vehicle: water
  T/C: 150 % of control
dose: 1.56 mg/kg/injection, schedule: Q01DX009 (ip), vehicle: water
  T/C: 188 % of control
dose: 3.13 mg/kg/injection, schedule: Q01DX009 (ip), vehicle: water
  T/C: 167 % of control

## O=C(Nc1ccc(NC(=O)Nc2ccc(C3=NCCN3)cc2)cc1)Nc1ccc(C2=NCCN2)cc1
dose: 110.0 mg/kg/injection, schedule: Q01DX010 (ip), vehicle: saline
  T/C: 118 % of control
dose: 165.0 mg/kg/injection, schedule: Q01DX010 (ip), vehicle: saline
  T/C: 118 % of control

## CCN(CC)C1=NS(=O)(=O)c2ccccc2C(NN)=C1C
dose: 6.25 mg/kg/injection, schedule: Q01DX009 (ip), vehicle: Klucel (hydroxypropylcellulose) (HPC)
  T/C: 90 % of control
dose: 12.5 mg/kg/injection, schedule: Q01DX009 (ip), vehicle: Klucel (hydroxypropylcellulose) (HPC)
  T/C: 90 % of control
dose: 25.0 mg/kg/injection, schedule: Q01DX009 (ip), vehicle: Klucel (hydroxypropylcellulose) (HPC)
  T/C: 104 % of control
[4]
  T/C: 92 % of control
[5]
  T/C: 99 % of control
[6]
  T/C: 97 % of control

## CCCCCCOc1cc(N)ccc1C(=O)O
[4]
  T/C: 98 % of control
[5]
  T/C: 100 % of control
[6]
  T/C: 92 % of control

## Nc1nc2c(ccc3ccccc32)s1
dose: 25.0 mg/kg/injection, schedule: Q01DX009 (ip), vehicle: saline with Tween-80
  T/C: 115 % of control
dose: 50.0 mg/kg/injection, schedule: Q01DX009 (ip), vehicle: saline with Tween-80
  T/C: 102 % of control and 108 % of control and 97 % of control
dose: 100.0 mg/kg/injection, schedule: Q01DX009 (ip), vehicle: saline with Tween-80
  T/C: 100 % of control and 110 % of control and 93 % of control
dose: 200.0 mg/kg/injection, schedule: Q01DX009 (ip), vehicle: saline with Tween-80
  T/C: 103 % of control and 108 % of control and 93 % of control

## CNc1ccc(N=Nc2ccc3ncccc3c2)cc1
dose: 3.13 mg/kg/injection, schedule: Q01DX009 (ip), vehicle: saline with Tween-80
  T/C: 104 % of control
dose: 6.25 mg/kg/injection, schedule: Q01DX009 (ip), vehicle: saline with Tween-80
  T/C: 95 % of control
dose: 12.5 mg/kg/injection, schedule: Q01DX009 (ip), vehicle: saline with Tween-80
  T/C: 90 % of control
dose: 25.0 mg/kg/injection, schedule: Q04DX003 (ip), vehicle: saline with Tween-80
  T/C: 100 % of control
dose: 50.0 mg/kg/injection, schedule: Q04DX003 (ip), vehicle: saline with Tween-80
  T/C: 90 % of control
[1]
  T/C: 86 % of control

## CCN(CC)CCO/N=C1\CC(c2ccc(OC)c(OC)c2)Oc2ccccc21 (centres undefined)
dose: 15.0 mg/kg/injection, schedule: Q01DX005 (ip), vehicle: saline
  T/C: 100 % of control
dose: 30.0 mg/kg/injection, schedule: Q01DX005 (ip), vehicle: saline
  T/C: 114 % of control
dose: 60.0 mg/kg/injection, schedule: Q01DX005 (ip), vehicle: saline
  T/C: 100 % of control and 105 % of control

## O=S(=O)(NCCSSCCNS(=O)(=O)c1ccccc1)c1ccccc1
dose: 25.0 mg/kg/injection, schedule: Q01DX009 (ip), vehicle: other
  T/C: 96 % of control
dose: 50.0 mg/kg/injection, schedule: Q01DX009 (ip), vehicle: other
  T/C: 98 % of control and 105 % of control
dose: 100.0 mg/kg/injection, schedule: Q01DX009 (ip), vehicle: other
  T/C: 110 % of control
dose: 200.0 mg/kg/injection, schedule: Q01DX009 (ip), vehicle: other
  T/C: 103 % of control and 90 % of control

## Nc1nc(-c2ccccc2)nc2sc3c(c12)CCCC3
[7]
  T/C: 104 % of control
[8]
  T/C: 106 % of control
[9]
  T/C: 103 % of control

## CNC(=O)OCc1nnn(-c2ccccc2)c1COC(=O)NC
dose: 12.5 mg/kg/injection, schedule: Q01DX005 (ip), vehicle: distilled water + Tween-80
  T/C: 98 % of control
dose: 25.0 mg/kg/injection, schedule: Q01DX005 (ip), vehicle: distilled water + Tween-80
  T/C: 98 % of control
dose: 50.0 mg/kg/injection, schedule: Q01DX005 (ip), vehicle: distilled water + Tween-80
  T/C: 96 % of control
dose: 100.0 mg/kg/injection, schedule: Q01DX005 (ip), vehicle: distilled water + Tween-80
  T/C: 91 % of control
dose: 200.0 mg/kg/injection, schedule: Q01DX005 (ip), vehicle: distilled water + Tween-80
  T/C: 88 % of control

## COc1nc(N)c([N+](=O)[O-])c(C(Br)Br)n1
dose: 6.25 mg/kg/injection, schedule: Q01DX005 (ip), vehicle: Klucel (hydroxypropylcellulose) (HPC)
  T/C: 104 % of control
dose: 12.5 mg/kg/injection, schedule: Q01DX005 (ip), vehicle: Klucel (hydroxypropylcellulose) (HPC)
  T/C: 100 % of control
dose: 25.0 mg/kg/injection, schedule: Q01DX005 (ip), vehicle: Klucel (hydroxypropylcellulose) (HPC)
  T/C: 91 % of control

## C=C1CC2(CC3(C(C)C)CC3C2C)OC1=O (centres undefined)
dose: 100.0 mg/kg/injection, schedule: Q01DX001 (ip), vehicle: saline
  T/C: 100 % of control
dose: 200.0 mg/kg/injection, schedule: Q01DX001 (ip), vehicle: saline
  T/C: 99 % of control
dose: 400.0 mg/kg/injection, schedule: Q01DX001 (ip), vehicle: saline
  T/C: 110 % of control

## O=c1c2c([nH]c3ccc4[nH]c5c(c(=O)c4c13)CCCC5)CCCC2
[1]
  T/C: 94 % of control
[2]
  T/C: 91 % of control
[3]
  T/C: 87 % of control

## OCc1c(Cl)nc2sccn12
dose: 25.0 mg/kg/injection, schedule: Q01DX001 (ip), vehicle: Klucel (hydroxypropylcellulose) (HPC)
  T/C: 109 % of control
dose: 50.0 mg/kg/injection, schedule: Q01DX001 (ip), vehicle: Klucel (hydroxypropylcellulose) (HPC)
  T/C: 105 % of control
dose: 100.0 mg/kg/injection, schedule: Q01DX001 (ip), vehicle: Klucel (hydroxypropylcellulose) (HPC)
  T/C: 93 % of control and 97 % of control
dose: 400.0 mg/kg/injection, schedule: Q01DX001 (ip), vehicle: Klucel (hydroxypropylcellulose) (HPC)
  T/C: 92 % of control

## COC(=O)c1noc2c1CSC1=C2CS(=O)(=O)c2ccccc21
[10]
  T/C: 104 % of control
[11]
  T/C: 104 % of control
[12]
  T/C: 98 % of control

## CCOCCOc1nc(C)cc(C)c1C#N
dose: 50.0 mg/kg/injection, schedule: Q01DX005 (ip), vehicle: saline with Tween-80
  T/C: 102 % of control
dose: 100.0 mg/kg/injection, schedule: Q01DX005 (ip), vehicle: saline with Tween-80
  T/C: 105 % of control
dose: 200.0 mg/kg/injection, schedule: Q01DX005 (ip), vehicle: saline with Tween-80
  T/C: 96 % of control

## Nc1ccc(CCCC(=O)NCc2cccnc2)cc1
[10]
  T/C: 106 % of control
[11]
  T/C: 96 % of control
[12]
  T/C: 91 % of control

## O=C(O)C(=O)Nc1cccc2c1ccc1c(=O)cc(C(=O)O)[nH]c12
dose: 50.0 mg/kg/injection, schedule: Q01DX009 (ip), vehicle: saline
  T/C: 109 % of control
dose: 100.0 mg/kg/injection, schedule: Q01DX009 (ip), vehicle: saline
  T/C: 109 % of control
dose: 200.0 mg/kg/injection, schedule: Q01DX009 (ip), vehicle: saline
  T/C: 104 % of control

## O=[N+]([O-])c1cc2cc(Cl)c3ccccc3c2o1
[7]
  T/C: 100 % of control
[8]
  T/C: 102 % of control
[9]
  T/C: 102 % of control
